Results: ChEMBL document CHEMBL6182889, “Discovery of the first-in-class DOT1L PROTAC degrader” (Eur J Med Chem, 2025)
Activity calls are given as the source filed them. No cut-off for these calls is given here.

Legend:
[1] = target: T1, von Hippel-Lindau disease tumor suppressor/Histone-lysine N-methyltransferase, H3 lysine-79 specific (Homo sapiens, UniProt Q8TEK3+P40337); assay: PROTAC activity at VHL/DOT1L in mixed-lineage leukemia rearranged (MLL-r) human MV4-11 cells assessed as induction of DOTIL degradation by measuring fold change in DOT1L protein level at 3 uM incubated for 1 hr by western blot analysis relative to control; assay type: cell-based
Target sequence in this assay (P40337 whole entry, looked up): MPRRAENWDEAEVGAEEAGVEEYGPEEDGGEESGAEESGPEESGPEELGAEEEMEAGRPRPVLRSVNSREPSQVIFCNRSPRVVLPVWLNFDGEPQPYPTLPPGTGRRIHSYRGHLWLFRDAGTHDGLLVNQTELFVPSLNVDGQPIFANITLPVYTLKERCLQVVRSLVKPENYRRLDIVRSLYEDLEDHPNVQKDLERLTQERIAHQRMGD
Target sequence in this assay (Q8TEK3 whole entry, looked up): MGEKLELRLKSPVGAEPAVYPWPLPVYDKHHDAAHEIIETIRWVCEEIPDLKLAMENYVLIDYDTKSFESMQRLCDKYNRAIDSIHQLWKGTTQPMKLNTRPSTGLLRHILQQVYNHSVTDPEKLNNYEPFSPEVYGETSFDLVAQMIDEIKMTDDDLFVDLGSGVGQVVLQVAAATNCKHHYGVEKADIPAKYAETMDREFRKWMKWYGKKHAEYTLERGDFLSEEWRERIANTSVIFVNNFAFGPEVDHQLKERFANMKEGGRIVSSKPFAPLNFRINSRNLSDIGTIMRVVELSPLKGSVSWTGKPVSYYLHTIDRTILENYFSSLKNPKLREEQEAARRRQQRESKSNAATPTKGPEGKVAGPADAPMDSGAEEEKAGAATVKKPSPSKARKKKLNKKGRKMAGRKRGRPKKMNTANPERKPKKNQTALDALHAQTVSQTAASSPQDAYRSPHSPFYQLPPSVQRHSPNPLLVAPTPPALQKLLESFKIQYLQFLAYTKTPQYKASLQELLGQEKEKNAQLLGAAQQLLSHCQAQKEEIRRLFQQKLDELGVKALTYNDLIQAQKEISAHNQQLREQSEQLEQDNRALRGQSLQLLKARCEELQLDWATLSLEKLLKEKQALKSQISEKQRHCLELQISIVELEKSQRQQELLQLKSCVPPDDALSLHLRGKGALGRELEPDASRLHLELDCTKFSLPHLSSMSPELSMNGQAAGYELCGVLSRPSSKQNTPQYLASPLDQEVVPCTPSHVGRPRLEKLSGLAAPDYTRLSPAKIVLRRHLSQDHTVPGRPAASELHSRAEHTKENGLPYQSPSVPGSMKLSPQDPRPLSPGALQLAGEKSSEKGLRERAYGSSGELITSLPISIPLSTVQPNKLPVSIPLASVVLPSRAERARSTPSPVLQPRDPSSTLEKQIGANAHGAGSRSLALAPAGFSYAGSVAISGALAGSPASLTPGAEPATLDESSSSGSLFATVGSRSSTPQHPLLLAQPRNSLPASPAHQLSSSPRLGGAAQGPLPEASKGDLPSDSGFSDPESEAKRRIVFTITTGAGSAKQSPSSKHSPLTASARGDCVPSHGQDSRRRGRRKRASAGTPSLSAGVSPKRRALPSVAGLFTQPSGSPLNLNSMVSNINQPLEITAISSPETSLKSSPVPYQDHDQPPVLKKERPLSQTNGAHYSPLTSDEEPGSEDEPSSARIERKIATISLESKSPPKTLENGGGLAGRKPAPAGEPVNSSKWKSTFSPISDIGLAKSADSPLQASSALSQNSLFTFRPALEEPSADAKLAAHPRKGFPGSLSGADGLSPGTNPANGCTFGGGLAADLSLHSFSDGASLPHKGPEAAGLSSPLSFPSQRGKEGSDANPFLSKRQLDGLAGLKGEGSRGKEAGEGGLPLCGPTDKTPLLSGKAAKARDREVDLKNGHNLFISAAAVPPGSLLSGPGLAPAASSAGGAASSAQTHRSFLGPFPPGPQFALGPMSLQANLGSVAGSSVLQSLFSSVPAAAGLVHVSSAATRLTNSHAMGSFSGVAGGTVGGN

[2] = test system: MV4-11; assay: Effect on DOTIL mRNA expression in mixed-lineage leukemia rearranged (MLL-r) human MV4-11 cells at 3 uM incubated for 24 hrs by RT-qPCR analysis; assay type: functional, cell-based
[3] = target: T1, von Hippel-Lindau disease tumor suppressor/Histone-lysine N-methyltransferase, H3 lysine-79 specific; assay: PROTAC activity at VHL/DOT1L in mixed-lineage leukemia rearranged (MLL-r) human MV4-11 cells assessed as maximal induction of DOT1L degradation incubated for 24 hrs by western blot analysis relative to control; assay type: cell-based
Target sequence in this assay (P40337 whole entry, looked up): as the sequence (P40337 whole entry, looked up) above
Target sequence in this assay (Q8TEK3 whole entry, looked up): as the sequence (Q8TEK3 whole entry, looked up) above

[4] = target: T1, von Hippel-Lindau disease tumor suppressor/Histone-lysine N-methyltransferase, H3 lysine-79 specific; assay: PROTAC activity at VHL/DOT1L in mixed-lineage leukemia rearranged (MLL-r) human THP-1 cells assessed as induction of DOT1L degradation at 3 uM co-incubated with VHL ligand for 24 hrs by western blot analysis; assay type: cell-based
Target sequence in this assay (P40337 whole entry, looked up): as the sequence (P40337 whole entry, looked up) above
Target sequence in this assay (Q8TEK3 whole entry, looked up): as the sequence (Q8TEK3 whole entry, looked up) above

[5] = target: T1, von Hippel-Lindau disease tumor suppressor/Histone-lysine N-methyltransferase, H3 lysine-79 specific; assay: PROTAC activity at VHL/DOT1L in mixed-lineage leukemia rearranged (MLL-r) human THP-1 cells assessed as induction of DOTIL degradation by measuring fold change in DOT1L protein level at 3 uM incubated for 4 hrs by western blot analysis relative to control; assay type: cell-based
Target sequence in this assay (P40337 whole entry, looked up): as the sequence (P40337 whole entry, looked up) above
Target sequence in this assay (Q8TEK3 whole entry, looked up): as the sequence (Q8TEK3 whole entry, looked up) above

[6] = target: T1, von Hippel-Lindau disease tumor suppressor/Histone-lysine N-methyltransferase, H3 lysine-79 specific; assay: PROTAC activity at VHL/DOT1L in mixed-lineage leukemia rearranged (MLL-r) human THP-1 cells assessed as induction of DOTIL degradation by measuring fold change in H3K79Me2 level at 3 uM incubated for 8 hrs by western blot analysis relative to control; assay type: cell-based
Target sequence in this assay (P40337 whole entry, looked up): as the sequence (P40337 whole entry, looked up) above
Target sequence in this assay (Q8TEK3 whole entry, looked up): as the sequence (Q8TEK3 whole entry, looked up) above

[7] = target: Protein arginine N-methyltransferase 6 (Homo sapiens) (UniProt Q96LA8); assay: Inhibition of PRMT6 (unknown origin) at 10 uM by radiometric methyltransferase assay
[8] = test system: MCF-10A; assay: Cytotoxicity against human MCF-10A cells assessed as inhibition of cell growth incubated for 7 days by CCK-8 assay; assay type: toxicity, cell-based; settings: 168 h, time 7 day
[9] = target: T1, von Hippel-Lindau disease tumor suppressor/Histone-lysine N-methyltransferase, H3 lysine-79 specific; assay: PROTAC activity at VHL/DOT1L in mixed-lineage leukemia rearranged (MLL-r) human MV4-11 cells assessed as induction of DOTIL degradation by measuring fold change in H3K79Me2 level at 3 uM incubated for 8 hrs by western blot analysis relative to control; assay type: cell-based
Target sequence in this assay (P40337 whole entry, looked up): as the sequence (P40337 whole entry, looked up) above
Target sequence in this assay (Q8TEK3 whole entry, looked up): as the sequence (Q8TEK3 whole entry, looked up) above

[10] = target: DNA (cytosine-5)-methyltransferase 3B (Homo sapiens) (UniProt Q9UBC3); assay: Inhibition of human full length DNMT3b using lambda DNA and SAM as substrate at 10 uM by radiometric Hotspot assay
[11] = target: T1, von Hippel-Lindau disease tumor suppressor/Histone-lysine N-methyltransferase, H3 lysine-79 specific; assay: PROTAC activity at VHL/DOT1L in mixed-lineage leukemia rearranged (MLL-r) human THP-1 cells assessed as induction of DOTIL degradation by measuring fold change in DOT1L protein level at 3 uM incubated for 8 hrs by western blot analysis relative to control; assay type: cell-based
[12] = target: T1, von Hippel-Lindau disease tumor suppressor/Histone-lysine N-methyltransferase, H3 lysine-79 specific; assay: PROTAC activity at VHL/DOTIL in mixed-lineage leukemia rearranged (MLL-r) human THP-1 cells assessed as induction of DOT1L degradation by measuring reduction in DOTIL protein level at 3 uM incubated for 24 hrs by western blot analysis relative to control; assay type: cell-based; parameters: scale not given: the % may be the effect or the level left
[13] = target: DNA (cytosine-5)-methyltransferase 3A (Homo sapiens) (UniProt Q9Y6K1); assay: Inhibition of human DNMT3a using lambda DNA and SAM as substrate at 10 uM by radiometric Hotspot assay
[14] = test system: PNT2; assay: Cytotoxicity against human PNT2 cells assessed as inhibition of cell growth incubated for 7 days by CCK-8 assay; assay type: toxicity, cell-based; settings: pnt2, 168 h, time 7 day
[15] = target: T1, von Hippel-Lindau disease tumor suppressor/Histone-lysine N-methyltransferase, H3 lysine-79 specific; assay: PROTAC activity at VHL/DOT1L in mixed-lineage leukemia rearranged (MLL-r) human THP-1 cells assessed as induction of DOT1L degradation incubated for 24 hrs by western blot analysis; assay type: cell-based
[16] = target: T1, von Hippel-Lindau disease tumor suppressor/Histone-lysine N-methyltransferase, H3 lysine-79 specific; assay: PROTAC activity at VHL/DOTIL in mixed-lineage leukemia rearranged (MLL-r) human THP-1 cells assessed as induction of DOT1L degradation by measuring fold change in DOTIL protein level at 3 uM incubated for 24 hrs by western blot analysis relative to control; assay type: cell-based
[17] = target: T2, Histone-lysine N-methyltransferase EHMT2 (Homo sapiens) (UniProt Q96KQ7); assay: Inhibition of human G9a using Histone H3 and SAM as substrate at 10 uM by radiometric Hotspot assay
T2 sequence (whole entry): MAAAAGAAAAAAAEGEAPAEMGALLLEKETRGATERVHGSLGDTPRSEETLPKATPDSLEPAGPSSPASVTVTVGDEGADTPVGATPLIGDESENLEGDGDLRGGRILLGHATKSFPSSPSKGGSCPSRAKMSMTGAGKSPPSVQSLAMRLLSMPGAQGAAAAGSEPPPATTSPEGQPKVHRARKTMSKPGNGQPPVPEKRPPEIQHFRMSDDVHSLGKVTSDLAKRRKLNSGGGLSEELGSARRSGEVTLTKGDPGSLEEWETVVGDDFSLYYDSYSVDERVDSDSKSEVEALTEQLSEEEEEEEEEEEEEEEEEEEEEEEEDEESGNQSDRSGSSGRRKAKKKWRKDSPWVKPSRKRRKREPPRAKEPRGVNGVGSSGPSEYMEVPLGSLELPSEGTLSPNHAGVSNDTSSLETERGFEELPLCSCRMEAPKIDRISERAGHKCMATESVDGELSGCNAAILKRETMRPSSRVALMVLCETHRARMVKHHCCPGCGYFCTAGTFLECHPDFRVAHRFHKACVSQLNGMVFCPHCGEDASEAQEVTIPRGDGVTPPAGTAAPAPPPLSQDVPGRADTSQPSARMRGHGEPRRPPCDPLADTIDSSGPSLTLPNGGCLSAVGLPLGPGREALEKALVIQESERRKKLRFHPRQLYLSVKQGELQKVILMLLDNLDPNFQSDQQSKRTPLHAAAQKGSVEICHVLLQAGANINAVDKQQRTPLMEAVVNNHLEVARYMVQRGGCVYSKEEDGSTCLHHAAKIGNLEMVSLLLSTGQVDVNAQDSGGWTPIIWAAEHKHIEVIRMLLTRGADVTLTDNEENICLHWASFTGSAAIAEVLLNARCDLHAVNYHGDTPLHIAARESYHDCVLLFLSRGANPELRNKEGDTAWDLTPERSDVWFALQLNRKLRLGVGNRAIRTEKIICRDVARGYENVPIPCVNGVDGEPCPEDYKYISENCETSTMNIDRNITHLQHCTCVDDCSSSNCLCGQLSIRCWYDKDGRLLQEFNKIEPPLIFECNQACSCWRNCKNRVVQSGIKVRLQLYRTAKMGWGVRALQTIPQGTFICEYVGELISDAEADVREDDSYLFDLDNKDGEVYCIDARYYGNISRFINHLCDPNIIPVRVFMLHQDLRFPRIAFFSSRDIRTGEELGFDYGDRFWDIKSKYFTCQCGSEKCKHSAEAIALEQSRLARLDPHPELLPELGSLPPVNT

Protein arginine N-methyltransferase 6 (Homo sapiens), sequence (Q96LA8 whole entry, looked up): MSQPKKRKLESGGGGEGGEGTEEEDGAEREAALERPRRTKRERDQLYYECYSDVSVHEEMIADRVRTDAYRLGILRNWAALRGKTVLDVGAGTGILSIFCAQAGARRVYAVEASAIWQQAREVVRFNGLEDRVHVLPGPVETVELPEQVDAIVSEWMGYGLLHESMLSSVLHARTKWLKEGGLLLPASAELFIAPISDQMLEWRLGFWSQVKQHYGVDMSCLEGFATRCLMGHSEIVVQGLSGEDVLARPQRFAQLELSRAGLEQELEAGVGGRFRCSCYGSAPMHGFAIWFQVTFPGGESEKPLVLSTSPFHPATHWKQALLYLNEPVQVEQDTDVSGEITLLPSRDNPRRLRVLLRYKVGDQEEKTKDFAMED
DNA (cytosine-5)-methyltransferase 3A (Homo sapiens), sequence (Q9Y6K1 whole entry, looked up): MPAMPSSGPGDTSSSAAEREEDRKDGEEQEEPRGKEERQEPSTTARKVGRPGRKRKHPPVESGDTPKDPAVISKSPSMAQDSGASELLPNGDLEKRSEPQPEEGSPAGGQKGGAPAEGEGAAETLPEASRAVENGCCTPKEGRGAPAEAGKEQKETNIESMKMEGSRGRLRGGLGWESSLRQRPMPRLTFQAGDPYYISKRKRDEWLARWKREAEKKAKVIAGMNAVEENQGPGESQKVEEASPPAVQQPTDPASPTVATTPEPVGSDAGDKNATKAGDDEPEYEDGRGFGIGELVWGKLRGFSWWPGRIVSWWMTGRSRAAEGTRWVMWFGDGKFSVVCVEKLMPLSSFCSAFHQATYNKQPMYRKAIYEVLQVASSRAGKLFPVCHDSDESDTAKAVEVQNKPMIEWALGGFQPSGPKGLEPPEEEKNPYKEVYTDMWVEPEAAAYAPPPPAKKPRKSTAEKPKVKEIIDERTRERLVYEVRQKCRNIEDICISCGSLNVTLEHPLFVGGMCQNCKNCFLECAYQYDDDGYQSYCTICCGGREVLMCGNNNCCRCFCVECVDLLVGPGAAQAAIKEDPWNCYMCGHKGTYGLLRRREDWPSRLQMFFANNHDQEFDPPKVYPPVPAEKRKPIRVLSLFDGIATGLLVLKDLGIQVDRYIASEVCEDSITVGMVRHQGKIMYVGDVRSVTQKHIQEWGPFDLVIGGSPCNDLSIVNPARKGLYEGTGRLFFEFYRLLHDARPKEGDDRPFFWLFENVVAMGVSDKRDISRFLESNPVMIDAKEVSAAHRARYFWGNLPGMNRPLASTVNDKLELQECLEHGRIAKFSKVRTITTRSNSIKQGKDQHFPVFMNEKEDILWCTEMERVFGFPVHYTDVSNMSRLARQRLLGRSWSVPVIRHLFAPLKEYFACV

fold change (FC) [1]: 1.26
Activity [3]: 93%
Activity [4]: inactive
fold change (FC) [5]: 0.4
fold change (FC) [6]: 1.13
inhibition [7]: inactive
fold change (FC) [9]: 0.42
inhibition [10]: inactive
fold change (FC) [11]: 0.29
Activity [12]: 77%
inhibition [13]: inactive
Activity [15]: Dose-dependent-effect
DC50 [15]: 56 nM
fold change (FC) [16]: 0.08
inhibition [17]: inactive
Structure (SMILES): Cc1ncsc1-c1ccc([C@H](CC(=O)NCCCCCCNC(=O)COc2nc(N)nc(Nc3cc(S(N)(=O)=O)ccc3N[C@@H](c3cccc4c3OC(F)(F)O4)c3ncccc3Cl)n2)NC(=O)[C@@H]2C[C@@H](O)CN2C(=O)[C@@H](NC(=O)C2(F)CC2)C(C)(C)C)cc1
Activity [2]: inactive
Activity [8]: Non-toxic
Activity [14]: Non-toxic
